Source: US20080027042A1, “Novel Aminopyridine Derivatives Having Aurora a Selective Inhibitory Action” (priority 2004, published 2008)

Legend:
Aurora A = molecular target: T1, Aurora A (Homo sapiens, UniProt O14965); assay: Aurora A inhibitory action (33P-ATP kinase assay, Kemptide substrate); type: biochemical; conditions: 20 μM ATP, 30° C., 20 minutes
T1 construct: histidine tag (N); made in house; host or cells: Escherichia coli BL21-CodonPlus(DE3)-RIL
T1 sequence (O14965 1-403): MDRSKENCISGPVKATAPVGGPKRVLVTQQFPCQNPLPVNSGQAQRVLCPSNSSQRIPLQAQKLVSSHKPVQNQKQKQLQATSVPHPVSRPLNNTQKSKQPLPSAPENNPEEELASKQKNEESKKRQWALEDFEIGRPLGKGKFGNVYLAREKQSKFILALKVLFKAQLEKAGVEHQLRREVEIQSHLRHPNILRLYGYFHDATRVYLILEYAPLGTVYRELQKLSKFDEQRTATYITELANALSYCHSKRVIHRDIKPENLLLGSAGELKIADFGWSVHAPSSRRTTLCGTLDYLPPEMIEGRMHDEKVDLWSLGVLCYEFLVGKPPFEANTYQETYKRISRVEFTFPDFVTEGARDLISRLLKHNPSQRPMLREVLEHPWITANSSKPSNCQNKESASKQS
Summary of the method: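 His-tagged Aurora A expressed in E. coli, Ni-purified; reaction in 50 mM Tris pH 7.4, 15 mM Mg acetate, 0.2 mM EDTA with 100 μM Kemptide, 20 μM ATP plus [γ-33P]ATP, 20 min at 30 °C. Phosphopeptide captured on P81 filters and counted by scintillation; DMSO control.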

[1] = tested on: Human cervical cancer cells (HeLa S3); assay: Effect by combined use of drugs in cells (with paclitaxel), WST-8 method; type: cell-based; conditions: three days; for inhibition at 1 µM: HeLa S3, compound 1.0 μM alone; for inhibition at 3 µM: HeLa S3, compound 3.0 μM alone; for inhibition at 0.3 µM: HeLa S3, compound 0.3 μM alone
Text: Method for Judging the Effect by Combined Use of Drugs in Cells
Fetal calf serum (FCS) was purchased from Moregate Biotech, DMEM medium from Invitrogen Corp., paclitaxel (tradename: Taxol) from Sigma-Aldrich, Inc., and WST-8 from Kishida Chemical Co., Ltd.
(§1) Human cervical cancer cells (HeLa S3) were obtained from the American Type Culture Collection (ATCC).
(§2) c) Method of Judging the Effect
Cells were suspended in a DMEM medium containing 10% FCS, and the cell suspension was dispensed to two 96-well plastic plates at a rate of 750 cells/100 microliters per well. The plates were incubated overnight in 5% CO2-95% air at 37° C. A drug was subjected to graded dilution in dimethylsulfoxide and flurther diluted with DMSO or with a DMEM medium containing 10% FCS and also containing 2 nM paclitaxel. Then, the dilutions were each dispensed to one of the plates on which cells had been disseminated, at a rate of 100 microliters per well. The final concentration of paclitaxel at this stage was 1 nM. Also, the concentrations in the case of sole administration of the compound according to the invention were 0.03, 0.1, 0.3, 1 and 3 μM. The plates were incubated for further three days in 5% CO2-95% air at 37° C. Cell growth after incubation was measured by the WST-8 method (H. Tominaga, et al., Anal. Commun., 36, 47-50 (1999)). Here, the WST-8 method refers to a method in which 20 microliters of a WST-8 reagent solution is added to each well, incubation is conducted at 37° C. for 45 minutes, the plate is stirred, and the amount of formazan produced is measured by a colorimetric method to determine the inhibitory rate of the drug. The growth inhibitory effects of paclitaxel and of the compound according to the invention were determined, with the value obtained in sole treatment of DMSO being defined as 0%.

Aurora B = molecular target: T2, Aurora B (Homo sapiens, UniProt Q96GD4); assay: Aurora B inhibitory action (33P-ATP kinase assay, Kemptide substrate); type: biochemical; conditions: 100 μM ATP, 30° C., 20 minutes
T2 construct: histidine tag (N); made in house; host or cells: Escherichia coli BL21-CodonPlus(DE3)-RIL
Summary of the method: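 His-tagged Aurora B expressed in E. coli, reacted with 100 μM Kemptide, 100 μM ATP plus [γ-33P]ATP in Tris pH 7.4, 15 mM Mg acetate, 0.2 mM EDTA, 30 °C, 20 min. Peptide captured on P81 filters for scintillation counting; compounds added from DMSO dilutions.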

[2] = tested on: Human cervical cancer cells (HeLa S3); assay: Cell growth inhibitory effect, WST-8 method; type: cell-based; conditions: 72 h, HeLa S3, three days incubation
Text: Method for Judging the Pharmaceutical Effect Using cells
Fetal calf serum (FCS) was purchased from Moregate Biotech, and DMEM medium was purchased from Invitrogen Corp. WST-8 was purchased from Kishida Chemical Co., Ltd.
as §1, §2
Cells were suspended in a DMEM medium containing 10% FCS, and the cell suspension was dispensed to a 96-well plastic plate at a rate of 750 cells/l 00 microliters per well. The plate was incubated overnight in 5% CO2-95% air at 37° C. A drug was subjected to graded dilution in dimethylsulfoxide and further diluted with a DMEM medium containing 10% FCS. Then, the dilution was dispensed to the plate on which cells had been disseminated, at a rate of 100 microliters per well. The plate was incubated for further three days in 5% CO2-95% air at 37° C. Cell growth after incubation was measured by the WST-8 method (H. Tominaga, et al., Anal. Commun., 36, 47-50 (1999)). Here, the WST-8 method refers to a method in which 20 microliters of a WST-8 reagent solution is added to each well, incubation is conducted at 37° C. for 45 minutes, the plate is stirred, and the amount of formazan produced is measured by a calorimetric method to determine the inhibitory rate of the drug. The concentration for 50% growth inhibition (EC50, IM) of the compound was determined.

[3] = HeLa S3, compound 1.0 μM + paclitaxel 1 nM
[4] = Homo sapiens, HeLa S3, 72 h, read-out: Cell growth inhibitory effect by sole administration of the compound of Example (%)
[5] = HeLa S3, compound 3.0 μM + paclitaxel 1 nM
[6] = HeLa S3, compound 0.3 μM + paclitaxel 1 nM

T2 sequence (Q96GD4 whole entry): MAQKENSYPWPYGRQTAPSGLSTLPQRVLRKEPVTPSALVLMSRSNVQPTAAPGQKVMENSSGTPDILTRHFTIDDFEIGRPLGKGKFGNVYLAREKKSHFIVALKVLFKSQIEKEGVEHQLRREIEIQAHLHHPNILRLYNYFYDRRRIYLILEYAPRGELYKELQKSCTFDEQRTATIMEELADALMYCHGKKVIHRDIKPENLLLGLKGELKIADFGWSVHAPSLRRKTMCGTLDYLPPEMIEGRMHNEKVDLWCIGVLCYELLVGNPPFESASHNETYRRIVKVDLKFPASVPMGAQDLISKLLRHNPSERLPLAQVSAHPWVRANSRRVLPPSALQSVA

Structure (SMILES)	IC50 (Aurora A)	IC50 (Aurora B)	IC50 [2]	Cell growth inhibitory effect by combined administration of paclitaxel and the compound of Example (%) [1, 3]	inhibition at 1 µM [1, 4]	Cell growth inhibitory effect by combined administration of paclitaxel and the compound of Example (%) [1, 5]	inhibition at 3 µM [1, 4]	Cell growth inhibitory effect by combined administration of paclitaxel and the compound of Example (%) [1, 6]	inhibition at 0.3 µM [1, 4]	Cell growth inhibitory effect by combined administration of paclitaxel and the compound of Example (%) ([1]; HeLa S3, compound 0.1 μM + paclitaxel 1 nM)	inhibition at 0.1 µM ([1]; Homo sapiens, HeLa S3, 72 h, HeLa S3, compound 0.1 μM alone, read-out: Cell growth inhibitory effect by sole administration of the compound of Example (%))
O=C(O)C(F)(F)F.O=C(c1cccc(Cl)c1Cl)N1CCN(Cc2cccc(Nc3ncns3)n2)CC1 [Example 36, 6-((4-(2,3-dichlorobenzoyl)piperazin-1-yl)methyl)-N-1,2,4-thiadiazol-5-ylpyridin-2-amine trifluoroacetate]	0.0026 µM	3.2 µM	6.8 µM			83.4%	17.2%				
O=C(c1ccccc1C(F)(F)F)N1CCN(Cc2cccc(Nc3ncns3)n2)CC1 [Example 39, 6-((4-(2-(trifluoromethyl)benzoyl)piperazin-1-yl)methyl)-N-1,2,4-thiadiazol-5-ylpyridin-2-amine]	0.067 µM	9.1 µM	11 µM			72.2%	5.4%				
O=C(c1cccc(Cl)c1F)N1C[C@@H]2C[C@H]1CN2Cc1cncc(Nc2cc[nH]n2)n1 [Example 46, 6-(((1S,4S)-5-(3-chloro-2-fluorobenzoyl)-2,5-diazabicyclo[2.2. 1]hept-2-yl)methyl)-N-1H-pyrazol-3-ylpyrazin-2-amine]	0.0061 µM	1.4 µM	4.1 µM	75.0%	8.5%						
O=C(c1cccc(Cl)c1F)N1CCN(Cc2cncc(Nc3cc[nH]n3)n2)CC1 [Example 50, 6-((4-(3-chloro-2-fluorobenzoyl)piperazin-1-yl)methyl)-N-1H-pyrazol-3-ylpyrazin-2-amine]	0.0022 µM	5.4 µM	3.6 µM	82.0%	6%						
O=C(c1cccc(Cl)c1F)N1CCN(Cc2cncc(Nc3nccs3)n2)CC1 [Example 58, 6-((4-(3-chloro-2-fluorobenzoyl)piperazin-1-yl)methyl)-N-thiazol-2-ylpyrazin-2-amine]	0.0048 µM	9.9 µM	3 µM	81.4%	0%						
O=C(c1ccco1)N1CCN(Cc2cccc(Nc3ncc(Cl)s3)n2)CC1 [Example 62]	0.012 µM	0.38 µM	0.86 µM							68.0%	2.9%
O=C(c1cccs1)N1CCN(Cc2cccc(Nc3ncc(Cl)s3)n2)CC1 [Example 66, 6-((4-(2-thienylcarbonyl)piperazin-1-yl)methyl)-N-(5-chlorothiazol-2-yl)pyridin-2-amine]	0.0034 µM	0.25 µM	2.9 µM	60.9%	7.2%						
Cc1nc(C(=O)N2CCN(Cc3cccc(Nc4ncc(Cl)s4)n3)CC2)cs1 [Example 68, 6-((4-((2-methyl-thiazol-4-yl)carbonyl)piperazin-1-yl)methyl)-N-(5-chlorothiazol-2-yl)pyridin-2-amine]	0.011 µM	0.67 µM	5.1 µM			71.8%	27.3%				
N#Cc1cccc(C(=O)N2CCN(Cc3cccc(Nc4ncc(Cl)s4)n3)CC2)c1 [Example 71, 6-((4-(3-cyanobenzoyl)piperazin-1-yl)methyl)-N-(5-chlorothiazol-2-yl)pyridin-2-amine]	0.003 µM	0.37 µM	3 µM	60.7%	13.2%						
O=C(Cc1ccc(Cl)cc1)N1CCN(Cc2cccc(Nc3ncc(Cl)s3)n2)CC1.O=C(O)C(F)(F)F [Example 77, 6-((4-((4-chlorophenyl)acetyl)piperazin-1-yl)methyl)-N-(5-chlorothiazol-2-yl)pyridin-2-amine trifluoroacetate]	0.0041 µM	1.3 µM	1.6 µM					51.8%	2.2%		

Stronger by IC50 (Aurora A), values ahead:

IC50 (Aurora A)	IC50 (Aurora B)	IC50 [2]	Structure (SMILES)	Cell growth inhibitory effect by combined administration of paclitaxel and the compound of Example (%) [1, 3]	inhibition at 1 µM [1, 4]	Cell growth inhibitory effect by combined administration of paclitaxel and the compound of Example (%) [1, 5]	inhibition at 3 µM [1, 4]	Cell growth inhibitory effect by combined administration of paclitaxel and the compound of Example (%) [1, 6]	inhibition at 0.3 µM [1, 4]	Cell growth inhibitory effect by combined administration of paclitaxel and the compound of Example (%) ([1]; HeLa S3, compound 0.1 μM + paclitaxel 1 nM)	inhibition at 0.1 µM ([1]; Homo sapiens, HeLa S3, 72 h, HeLa S3, compound 0.1 μM alone, read-out: Cell growth inhibitory effect by sole administration of the compound of Example (%))
0.0021 µM	2.9 µM	1.4 µM	Cc1cc(Nc2cncc(CN3CCN(C(=O)c4cccc(Cl)c4F)CC3)n2)n[nH]1 [Example 56, 6-((4-(3-chloro-2-fluorobenzoyl)piperazin-1-yl)methyl)-N-(5-methyl-1H-pyrazol-3-yl)pyrazin-2-amine]					81.8%	6.5%		
0.0011 µM	0.32 µM	2.5 µM	Cc1cc(Nc2cccc(CN3CCN(C(=O)c4cccc(C(F)(F)F)c4Cl)CC3)n2)n[nH]1 [Example 30, 6-((4-(2-chloro-3-(trifluoromethyl)benzoyl)piperazin-1-yl)methyl)-N-(5-methyl-1H-pyrazol-3-yl)pyridin-2-amine]	90.1%	29.1%						
0.00099 µM	1.9 µM	6.5 µM	O=C(c1cccc(C(F)(F)F)c1F)N1CCN(Cc2cccc(Nc3ncns3)n2)CC1 [Example 40, 6-((4-(2-fluoro-3-(trifluoromethyl)benzoyl)piperazin-1-yl)methyl)-N-1,2,4-thiadiazol-5-ylpyridin-2-amine]	76.9%	6.5%						
0.00044 µM	0.089 µM	11 µM	O=C(c1cccc(Cl)c1F)N1CCN(Cc2cccc(Nc3ncc(Cl)s3)n2)CC1 [Example 75, 6-((4-(3-chloro-2-fluorobenzoyl)piperazin-1-yl)methyl)-N-(5-chlorothiazol-2-yl)pyridin-2-amine]					91.5%	27.1%		
